Source: PMC2151243 (British Journal of Cancer, 1998)
Several values for one entry are separate records, joined by “and”; a condition that tells them apart may be missing. Equal values may be shown once. Entries after “also recorded” stand apart in the source; their conditions may differ.

Tests used:
[1] = mouse, in vivo; cited from earlier work
[2] = system: Sheep antiserum to ZD1694 (S37B14); experiment: Radioimmunoassay: cross-reaction of S37B14 antiserum; format: binding; settings: for Cross-reaction of S37B14 antiserum (%): relative amount of ZD1694 and cross-reactant required to inhibit antibody binding of radiolabel by 50%
Description: (§1) British Joumal of Cancer (1998) 77(2), 221-226 ? […] Tomudex is now available for the treat- ment of advanced colorectal cancer in several countries. […] The limit of detection of this assay for plasma was 0.2 g1M when a solid-phase extraction was used. […] Separation of polyglutamated metabo- lites by HPLC was followed by quantitation in fractions using radiochemical analysis (Jackman et al, 1991c; Gibson et al, 1993) or by measuring inhibition of TS (Sikora et al, 1988). […] The dog was chosen as an additional model, because, unlike mice, plasma levels of thymidine are low and this species is much more sensitive to the effects of TS inhibitors than rodents. […] Acetonitrile was from Fisons, Dextran T70 from Pharmacia and all other chemicals from Sigma. Solutions were prepared with deionized water. […] Stock solutions (10 mM) were prepared in 0.15 M sodium bicar- bonate and stored at -20?C. For the mouse studies, the drug was formulated in 0.05 M sodium bicarbonate and the pH was adjusted to 8.5-9.0. Radioimmunoassay The assay diluent was 0.05 M phosphate buffer pH 7.4, containing 1 g 1-' gelatin and 6 g 1-' sodium chloride (PBSG). Initially, all dilutions and dispensing of standards and samples were made with a Dilutrend diluter, but a Multiprobe (Canberra Packard) auto- mated liquid-handling system was later programmed to perform these steps in the assay. […] Samples were assayed at three appropriate dilutions to ensure that the results of at least two dilutions fell on the linear portion of the stan- dard curve, and samples were reassayed at different dilutions if necessary. The antiserum was diluted in PBSG so that approxi- mately 40% of total radioactivity was bound (Bo) to antibody. This dilution was previously determined from an antiserum dilution curve and was 1:300 to 1:500 depending on the batch of radiolabel used. […] Diluted standards and samples (0.1 ml) were added in duplicate to numbered LP3 tubes (Luckham) or to deep-well blocks (Beckman) with 0.3 ml of assay diluent, 0.1 ml of diluted anti- serum and 0.1 ml of diluted label, mixed and left to stand in iced water for 1 h. Each assay included total counts and non-specific- binding tubes, containing only the radiolabel and buffer, and zero- standard-binding tubes (Bo), which contained only radiolabel and antiserum. The antibody-bound radiolabel was separated from unbound radiolabel by the addition of ice-cold dextran-coated charcoal [2.5% (w/v) activated charcoal (Sigma) coated with 0.25% (w/v) Dextran T-70 (Pharmacia)] to all but the total-counts tubes for 10 min. After centrifugation at 1000 g for 10 min at 4?C, 0.5 ml aliquots of supematant were taken from each assay tube for scintillation counting in 4.0 ml of Ultima gold scintillant (Canberra-Packard). […] The radioimmunoassays were carried out at the Institute of Cancer Research. […] The limit of detection for 6-8 x 10^6 cells is 0.05 µM intracellular concentration. […] Plasma was immediately separated from the; approximately blood by microcentrifugation and stored at -20?C until assayed. Liver and kidney samples were immediately frozen on solid carbon dioxide. Gut epithelium samples were obtained 1 day after drug treatment.

[3] = biological target: Thymidylate synthase (TS; EC 2.1.1.45), mouse enzyme; settings: ref Jackman et al, 1991a, Gibson et al, 1993, read-out: Kj for mouse enzyme; cited from earlier work
[4] = set-up: method as in Aherme et al, 1996b; settings: ref Aherme et al, 1996b; cited from earlier work
[5] = system: L5178Y TK-/- mouse lymphoma; set-up: method as in Jackman et al, 1991b; settings: single i.p. injection 10 mg kg-1; ref Jackman et al, 1991b; cited from earlier work
[6] = set-up: method as in Jackman et al, 1995a; settings: mice, ref Jackman et al, 1995a, cited from earlier work
[7] = set-up: method as in Jodrell et al, 1991; settings: mice, 100 mg kg-1, HPLC; ref Jodrell et al, 1991; cited from earlier work
L1210:RD1694 cells = system: L1210:RD1694 cells; set-up: method as in Jackman et al, 1995c; settings: resistant line, after 24 h; ref Jackman et al, 1995c; cited from earlier work
[8] = system: thymidine salvage competent models; set-up: method as in Jackman et al, 1991a and b; settings: repeated treatment over 5 days; ref Jackman et al, 1991a and b; cited from earlier work
[9] = Pharmacokinetic studies in dogs: plasma and tissue levels by radioimmunoassay; format: in vivo, Alderley Park Beagle dogs
Description: British Joumal of Cancer (1998) 77(2), 221-226 ? […] Tomudex is now available for the treat- ment of advanced colorectal cancer in several countries. […] The limit of detection of this assay for plasma was 0.2 g1M when a solid-phase extraction was used. […] Separation of polyglutamated metabo- lites by HPLC was followed by quantitation in fractions using radiochemical analysis (Jackman et al, 1991c; Gibson et al, 1993) or by measuring inhibition of TS (Sikora et al, 1988). […] The dog was chosen as an additional model, because, unlike mice, plasma levels of thymidine are low and this species is much more sensitive to the effects of TS inhibitors than rodents. […] Acetonitrile was from Fisons, Dextran T70 from Pharmacia and all other chemicals from Sigma. Solutions were prepared with deionized water. […] Stock solutions (10 mM) were prepared in 0.15 M sodium bicar- bonate and stored at -20?C. For the mouse studies, the drug was formulated in 0.05 M sodium bicarbonate and the pH was adjusted to 8.5-9.0. Radioimmunoassay The assay diluent was 0.05 M phosphate buffer pH 7.4, containing 1 g 1-' gelatin and 6 g 1-' sodium chloride (PBSG). […] The antiserum was diluted in PBSG so that approxi- mately 40% of total radioactivity was bound (Bo) to antibody. This dilution was previously determined from an antiserum dilution curve and was 1:300 to 1:500 depending on the batch of radiolabel used. […]

[10] = Mouse pharmacokinetic studies: plasma and tissue levels by radioimmunoassay; format: in vivo, female DBA2 mice; settings: female, plasma, ip
Description: as §1

L1210 cells = system: L1210 cells; set-up: method as in Jackman et al, 1995c; settings: L1210, 0.1 µM, 24 h; ref Jackman et al, 1995c; cited from earlier work
[11] = set-up: method as in Judson et al, 1996; settings: man, ref Judson et al, 1996, cited from earlier work

For `C#CCN(Cc1cc2c(=O)[nH]c(C)nc2cc1C)c1ccc(C(=O)N[C@@H](CCC(=O)N[C@H](CCC(=O)O)C(=O)O)C(=O)O)c(F)c1` [CB30900], the “liver levels relative to plasma levels” value [1] is listed as “sixfold higher”.

With `Cc1nc2ccc(CN(C)c3ccc(C(=O)NC(CCC(=O)NC(CCC(=O)O)C(=O)O)C(=O)O)s3)cc2c(=O)[nH]1` (stereo not shown) [Diglutamate] the “Cross-reaction of S37B14 antiserum (%)” value [2] was 90%.

In the case of `Cc1nc2ccc(CN(C)c3ccc(C(=O)NC(CCC(=O)NC(CCC(=O)NC(CCC(=O)NC(CCC(=O)NC(CCC(=O)NC(CCC(=O)O)C(=O)O)C(=O)O)C(=O)O)C(=O)O)C(=O)O)C(=O)O)s3)cc2c(=O)[nH]1` (stereo not shown) [Hexaglutamate], the “Cross-reaction of S37B14 antiserum (%)” value [2] is reported as 100%.

For `Nc1nc2c(c(=O)[nH]1)N(C=O)C(CNc1ccc(C(=O)N[C@@H](CCC(=O)O)C(=O)O)cc1)CN2` (stereo partly shown) [Leucovorin], the “Cross-reaction of S37B14 antiserum (%)” value [2] was under 0.01%.

In the case of `CN1c2c(nc(N)[nH]c2=O)NCC1CNc1ccc(C(=O)N[C@@H](CCC(=O)O)C(=O)O)cc1` (stereo partly shown) [Methyl-THFA], the “Cross-reaction of S37B14 antiserum (%)” value [2] is reported as under 0.01%.

For `Cc1nc2ccc(CN(C)c3ccc(C(=O)N[C@@H](CCC(=O)N[C@@H](CCC(=O)N[C@@H](CCC(=O)N[C@@H](CCC(=O)N[C@@H](CCC(=O)O)C(=O)O)C(=O)O)C(=O)O)C(=O)O)C(=O)O)s3)cc2c(=O)[nH]1` [Pentaglutamate], the “Cross-reaction of S37B14 antiserum (%)” value [2] was 110%.

In the case of `Cc1nc2ccc(CN(C)c3ccc(C(=O)NC(CCC(=O)NC(CCC(=O)NC(CCC(=O)NC(CCC(=O)O)C(=O)O)C(=O)O)C(=O)O)C(=O)O)s3)cc2c(=O)[nH]1` (stereo not shown) [Tetraglutamate], the Ki [3] is listed as 1 nM and the “Cross-reaction of S37B14 antiserum (%)” value [2] is listed as 110%.

With `Cc1nc2ccc(CN(C)c3ccc(C(=O)NC(CCC(=O)NC(CCC(=O)NC(CCC(=O)O)C(=O)O)C(=O)O)C(=O)O)s3)cc2c(=O)[nH]1` (stereo not shown) [Triglutamate] the “Cross-reaction of S37B14 antiserum (%)” value [2] was 92%.

In the case of `C#CCN(Cc1cc2c(=O)[nH]c(C)nc2cc1C)c1ccc(C(=O)N[C@@H](CCc2nnn[nH]2)C(=O)O)c(F)c1` [ZD933 1], the “tissue to plasma ratios” value [4] is given as “low tissue to plasma ratios”.

For `Cc1nc2ccc(CN(C)c3ccc(C(=O)N[C@@H](CCC(=O)O)C(=O)O)s3)cc2c(=O)[nH]1` [ZD1694, N-[5-[N-(3,4-dihydro-2-methyl-4-oxoquinazolin-6-ylmethyl)-N-methylamino]-2-thenoyl]-L-glutamic acid], the anti-tumour effect [5] is given as “curative”, the “radioactivity in the tissues present as polyglutamates” value ([6]; 24 h after tritiated ZD1694 5 mg kg-1) is given as about 80% and the “polyglutamates in mouse plasma” value ([6]; tritiated ZD1694) is given as “No polyglutamates were found”. For the same molecule, the plasma half-life [7] was about 0.5 h, the “level of total drug ZD1694 estimated by radioassay” value (L1210:RD1694 cells) was 0.44 gM and the anti-tumour effect [8] was “led to anti- tumour activity”. The concentration at 28 day ([9]; Alderley Park Beagle, dog, plasma, iv, 0.2 mg kg-1 single i.v. bolus, 28 days after administration) was ~0.4 ng/mL and ~0.85 nM, the “gastrointestinal tissue drug concentrations” value ([9]; at 28 days, limit of detection 0.015 nmol g-1) was “near to the limit of detection; also recorded: at or near the limit of detection” and the concentration at 1 day ([10]; DBA2, mouse, single i.p. 1 mg kg-1, day 1) was 2.26 ng/mL. For the same molecule, the concentration at 1 day ([10]; DBA2, mouse, single i.p. 10 mg kg-1, day 1) was 7.18 nM, the concentration at 1 day ([10]; DBA2, mouse, single i.p. 100 mg kg-1, day 1) was 30.7 nM and the concentration at 4 day ([10]; DBA2, mouse, single i.p. 100 mg kg-1, day 4) was 2.39 nM. The half-life ([10]; mouse, DBA2 mice, 5 mg kg-1 i.p., non-compartmental model, read-out: plasma elimination phase (half-life) (converted)) was about 2.7 h, the “intracellular concentration of ZD1694 by radioassay” value (L1210 cells) was 3.8 gM and the third phase half-life ([11]; plasma) was 257 h. The “drug measured in the plasma” value ([11]; up to 4 weeks after drug administration) was 1 to 10 ng/mL, the IC50 ([2]; ZD1694 standard curve, read-out: mean dose at 50% inhibition of binding) was 1.47 nM and the “Cross-reaction of S37B14 antiserum (%)” value [2] was 100%.
